Experimental findings from patent US20250333407A1, “Compounds and Their Use for Treatment of Hemoglobinopathies” (Bristol-Myers Squibb Company, priority 2024, published 2025) are described below.

The structures appear in SMILES notation.

Type in all cases: cell-based
The target in one experiment is T1, ZBTB7A (Homo sapiens, UniProt O95365+Q96SW2).
T1 construct: HUDEP-2 cells engineered to express a HiBiT tag in either the WIZ (Widely interspaced zinc finger) or ZBTB7A
Briefly: HUDEP-2 ZBTB7A HiBiT degradation assay. As to conditions: HiBiT-tagged ZBTB7A degradation in HUDEP-2 cells, 24 hours of treatment; read-out: ZBTB7A EC50. Summed up: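 HiBiT-tagged HUDEP-2 cells were pre-cultured 48 h in IMDM with EPO, SCF, doxycycline and 5% human plasma, then exposed to compounds at 1.0×10^6 cells/ml for 24 h at 37 °C. Nano-Glo HiBiT lytic luminescence, normalised to DMSO over 10 concentrations, gave EC50 and Y-min.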
A general note: With HiBiT, luminescence reflects the tagged protein that the partner subunit can reach.

The target in another experiment is T2, WIZ (Homo sapiens, UniProt O95785+Q96SW2).
T2 construct: HUDEP-2 cells engineered to express a HiBiT tag in either the WIZ (Widely interspaced zinc finger) or ZBTB7A
Put plainly: HUDEP-2 WIZ HiBiT degradation assay. Particulars: HiBiT-tagged WIZ degradation in HUDEP-2 cells, 24 hours of treatment; read-out: WIZ EC50. Summed up:
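HiBiT-tagged HUDEP-2 cells at 1.0×10^6 cells/ml in SFEM II with SCF, EPO, dexamethasone and doxycycline, treated 24 h at 37 °C with a 10-point series ([…]). Luminescence after HiBiT lytic detection, normalized to DMSO; EC50 and Y-min from fitted curves.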

Another experiment concerns HbF. Put plainly: HbF HiBiT induction assay in HUDEP-2 cells. As to conditions: HUDEP-2 cells with HiBiT tag in HBG1/2, 72 hours of treatment; area under the dose response curve, higher AUC = greater HbF induction. In outline:
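HUDEP-2 cells carrying a HiBiT tag on HBG1/2 were exposed to compounds for 72 h at 37° C, 5% CO2, in IMDM with EPO, hSCF, DOX, transferrin, insulin, heparin and 5% human plasma. HiBiT luminescence was read after lytic detection; HbF induction is expressed as dose-response AUC, alongside EC50 and Ymax.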

T1 sequence (O95365 whole entry): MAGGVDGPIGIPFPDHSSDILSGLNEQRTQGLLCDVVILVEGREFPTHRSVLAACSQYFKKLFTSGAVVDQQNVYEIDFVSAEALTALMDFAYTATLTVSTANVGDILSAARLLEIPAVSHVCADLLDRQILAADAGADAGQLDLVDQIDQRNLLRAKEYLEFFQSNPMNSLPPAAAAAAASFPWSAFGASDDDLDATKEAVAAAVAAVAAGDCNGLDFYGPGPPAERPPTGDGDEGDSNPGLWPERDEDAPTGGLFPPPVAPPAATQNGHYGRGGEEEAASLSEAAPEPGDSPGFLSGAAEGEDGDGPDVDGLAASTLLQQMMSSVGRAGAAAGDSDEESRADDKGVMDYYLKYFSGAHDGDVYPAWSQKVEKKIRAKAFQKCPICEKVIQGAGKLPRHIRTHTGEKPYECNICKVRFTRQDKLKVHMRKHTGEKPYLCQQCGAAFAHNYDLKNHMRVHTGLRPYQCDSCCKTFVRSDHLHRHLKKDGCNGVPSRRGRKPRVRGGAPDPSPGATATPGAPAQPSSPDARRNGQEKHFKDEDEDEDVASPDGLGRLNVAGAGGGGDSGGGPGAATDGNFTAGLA
T1 sequence (Q96SW2 whole entry): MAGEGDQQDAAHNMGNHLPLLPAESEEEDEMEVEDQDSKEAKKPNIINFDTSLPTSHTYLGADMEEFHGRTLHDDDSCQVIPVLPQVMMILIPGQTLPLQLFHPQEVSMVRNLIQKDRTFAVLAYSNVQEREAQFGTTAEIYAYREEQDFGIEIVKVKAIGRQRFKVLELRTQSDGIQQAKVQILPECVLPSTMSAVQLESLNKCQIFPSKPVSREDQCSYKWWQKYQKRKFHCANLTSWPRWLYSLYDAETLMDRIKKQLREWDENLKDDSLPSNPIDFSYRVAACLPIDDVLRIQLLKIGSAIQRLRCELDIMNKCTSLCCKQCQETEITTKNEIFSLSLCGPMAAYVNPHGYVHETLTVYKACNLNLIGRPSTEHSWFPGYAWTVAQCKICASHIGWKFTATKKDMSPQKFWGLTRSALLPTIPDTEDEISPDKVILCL
T1 sequence (Q16531 whole entry partner): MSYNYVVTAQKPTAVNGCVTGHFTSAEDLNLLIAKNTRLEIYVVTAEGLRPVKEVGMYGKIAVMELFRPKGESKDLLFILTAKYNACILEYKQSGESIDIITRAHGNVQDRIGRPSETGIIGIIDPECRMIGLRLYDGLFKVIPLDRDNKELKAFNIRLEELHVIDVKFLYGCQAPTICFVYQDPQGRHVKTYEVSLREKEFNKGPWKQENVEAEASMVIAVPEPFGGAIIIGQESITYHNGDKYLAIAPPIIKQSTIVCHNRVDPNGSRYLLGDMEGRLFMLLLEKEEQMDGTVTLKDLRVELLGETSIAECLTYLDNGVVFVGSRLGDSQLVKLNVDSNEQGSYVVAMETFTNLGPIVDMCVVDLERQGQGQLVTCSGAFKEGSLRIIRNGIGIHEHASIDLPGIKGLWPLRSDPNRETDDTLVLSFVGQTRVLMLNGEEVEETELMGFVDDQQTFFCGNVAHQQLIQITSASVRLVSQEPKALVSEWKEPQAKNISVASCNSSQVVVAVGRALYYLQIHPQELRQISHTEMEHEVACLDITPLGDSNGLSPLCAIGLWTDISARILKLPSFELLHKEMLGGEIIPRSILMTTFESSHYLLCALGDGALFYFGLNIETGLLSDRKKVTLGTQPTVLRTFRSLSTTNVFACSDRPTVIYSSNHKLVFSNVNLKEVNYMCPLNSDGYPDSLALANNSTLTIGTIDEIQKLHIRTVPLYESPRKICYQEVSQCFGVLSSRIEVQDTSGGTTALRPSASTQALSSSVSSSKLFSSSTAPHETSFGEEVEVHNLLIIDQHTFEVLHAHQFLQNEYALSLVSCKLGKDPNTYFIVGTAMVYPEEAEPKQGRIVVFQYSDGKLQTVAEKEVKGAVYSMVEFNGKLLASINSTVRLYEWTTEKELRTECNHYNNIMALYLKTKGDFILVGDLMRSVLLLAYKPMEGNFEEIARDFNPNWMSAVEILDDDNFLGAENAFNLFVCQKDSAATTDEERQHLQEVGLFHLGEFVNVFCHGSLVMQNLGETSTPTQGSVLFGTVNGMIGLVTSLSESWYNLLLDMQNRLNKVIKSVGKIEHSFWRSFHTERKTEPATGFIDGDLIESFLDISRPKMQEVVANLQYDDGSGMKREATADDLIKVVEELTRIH
T2 sequence (O95785 whole entry): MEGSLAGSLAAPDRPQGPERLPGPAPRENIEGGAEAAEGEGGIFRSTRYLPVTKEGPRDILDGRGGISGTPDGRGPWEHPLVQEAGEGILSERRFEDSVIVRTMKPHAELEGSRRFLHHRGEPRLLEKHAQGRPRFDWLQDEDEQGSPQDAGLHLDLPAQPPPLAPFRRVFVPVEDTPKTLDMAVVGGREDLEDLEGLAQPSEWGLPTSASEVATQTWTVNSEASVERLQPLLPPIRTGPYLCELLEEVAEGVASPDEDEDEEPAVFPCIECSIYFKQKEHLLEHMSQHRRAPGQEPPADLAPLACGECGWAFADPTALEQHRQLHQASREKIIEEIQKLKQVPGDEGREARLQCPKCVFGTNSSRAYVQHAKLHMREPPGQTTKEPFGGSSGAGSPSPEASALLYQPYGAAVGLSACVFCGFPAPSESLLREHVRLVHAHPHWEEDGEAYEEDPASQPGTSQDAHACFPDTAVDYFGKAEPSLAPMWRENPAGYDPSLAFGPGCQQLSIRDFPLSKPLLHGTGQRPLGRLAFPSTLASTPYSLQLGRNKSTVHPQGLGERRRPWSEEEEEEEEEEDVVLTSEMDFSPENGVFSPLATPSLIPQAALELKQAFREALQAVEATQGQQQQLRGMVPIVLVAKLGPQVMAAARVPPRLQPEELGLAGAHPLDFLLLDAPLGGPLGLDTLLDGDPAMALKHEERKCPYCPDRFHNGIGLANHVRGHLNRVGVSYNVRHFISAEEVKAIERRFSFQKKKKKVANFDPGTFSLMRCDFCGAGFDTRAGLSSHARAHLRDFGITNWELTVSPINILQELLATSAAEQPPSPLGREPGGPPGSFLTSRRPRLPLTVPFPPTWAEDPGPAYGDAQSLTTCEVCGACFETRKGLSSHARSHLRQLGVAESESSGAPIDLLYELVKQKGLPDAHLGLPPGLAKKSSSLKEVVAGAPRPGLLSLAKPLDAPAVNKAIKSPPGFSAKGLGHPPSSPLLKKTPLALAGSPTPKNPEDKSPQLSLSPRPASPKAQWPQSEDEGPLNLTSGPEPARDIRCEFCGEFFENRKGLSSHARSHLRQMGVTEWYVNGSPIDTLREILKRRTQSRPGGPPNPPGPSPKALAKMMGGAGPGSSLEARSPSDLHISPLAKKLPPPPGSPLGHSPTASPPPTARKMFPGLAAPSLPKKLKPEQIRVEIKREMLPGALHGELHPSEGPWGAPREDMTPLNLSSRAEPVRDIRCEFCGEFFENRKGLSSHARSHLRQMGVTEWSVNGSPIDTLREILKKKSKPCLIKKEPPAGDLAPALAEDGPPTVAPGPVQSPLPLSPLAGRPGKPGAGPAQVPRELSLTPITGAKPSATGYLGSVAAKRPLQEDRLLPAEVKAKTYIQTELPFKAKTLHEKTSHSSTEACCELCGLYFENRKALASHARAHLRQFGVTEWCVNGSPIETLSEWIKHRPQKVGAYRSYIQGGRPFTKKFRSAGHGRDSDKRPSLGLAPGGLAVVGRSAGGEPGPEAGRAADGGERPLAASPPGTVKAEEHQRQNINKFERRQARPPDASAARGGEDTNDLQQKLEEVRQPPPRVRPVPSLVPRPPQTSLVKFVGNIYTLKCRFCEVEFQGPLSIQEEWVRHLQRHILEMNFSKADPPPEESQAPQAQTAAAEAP
T2 sequence (Q96SW2 whole entry): as the sequence (Q96SW2 whole entry) above
T2 sequence (Q16531 whole entry partner): as the sequence (Q16531 whole entry partner) above

As for `Cc1cc(-c2c(Nc3cccc4c3C(=O)N(C3CCC(=O)NC3=O)C4=O)cc3c(c2F)OCC(=O)N3C)ccn1` (stereo not drawn) [Compound 80, 2-(2,6-dioxopiperidin-3-yl)-4-((8-fluoro-4-methyl-7-(2-methylpyridin-4-yl)-3-oxo-3,4-dihydro-2H-benzo[b][1,4]oxazin-6-yl)amino)isoindoline-1,3-dione], the figures for the DC50 on ZBTB7A and at WIZ were 0.038 µM and 0.029 µM, respectively. For the same compound, the “HBF AUC” value with HbF is listed as “++ (++ = 100 ≤ AUC < 150)”.

With `Cc1cc(-c2c(Nc3cccc4c3C(=O)N(C3CCC(=O)NC3=O)C4=O)cc3c(c2F)OCC(=O)N3C)ccn1` (stereo not drawn) [Compound 81, 2-(2,6-dioxopiperidin-3-yl)-4-((8-fluoro-4-methyl-7-(2-methylpyridin-4-yl)-3-oxo-3,4-dihydro-2H-benzo[b][1,4]oxazin-6-yl)amino)isoindoline-1,3-dione], the DC50 worked out at 0.028 µM on ZBTB7A and 0.024 µM at WIZ. In addition, the “HBF AUC” value in the experiment on HbF is recorded as “++ (++ = 100 ≤ AUC < 150)”.

As for `Cc1cc(-c2c(Nc3cccc4c3C(=O)N([C@H]3CCC(=O)NC3=O)C4=O)cc3c(c2F)[C@@H](C)OC(=O)N3C)c(F)cn1` [Compound 82, 2-((S)-2,6-dioxopiperidin-3-yl)-4-(((4R)-5-fluoro-6-(5-fluoro-2-methylpyridin-4-yl)-1,4-dimethyl-2-oxo-1,4-dihydro-2H-benzo[d][1,3]oxazin-7-yl)amino)isoindoline-1,3-dione], the figures for the DC50 on ZBTB7A and at WIZ were 0.019 µM and 0.054 µM, respectively. In addition, the “HBF AUC” value with HbF is recorded as “++ (++ = 100 ≤ AUC < 150)”.

For `Cc1cc(-c2cc3c(cc2Nc2cccc4c2C(=O)N(C2CCC(=O)NC2=O)C4=O)N(C)C(=O)CC3(C)C)ccn1` (stereo not drawn) [Compound 83, 2-(2,6-dioxopiperidin-3-yl)-4-((1,4,4-trimethyl-6-(2-methylpyridin-4-yl)-2-oxo-1,2,3,4-tetrahydroquinolin-7-yl)amino)isoindoline-1,3-dione], the DC50 on ZBTB7A was 0.013 µM; at WIZ it was 0.008 µM. Also, the “HBF AUC” value in the experiment with HbF is given as “+ (+ = 15 ≤ AUC < 100)”.

As for `CC(=O)N1CCC(c2cc3c(cc2Nc2cccc4c2C(=O)N(C2CCC(=O)NC2=O)C4=O)N(C)C(=O)CC3)CC1` (stereo not drawn) [Compound 84, 4-((6-(1-acetylpiperidin-4-yl)-1-methyl-2-oxo-1,2,3,4-tetrahydroquinolin-7-yl)amino)-2-(2,6-dioxopiperidin-3-yl)isoindoline-1,3-dione], the DC50 on ZBTB7A came out at 0.019 µM; at WIZ, 0.007 µM. Besides, the “HBF AUC” value with HbF was “+++ (+++ = AUC ≥ 150)”.

Turning to `Cc1cc(-c2cc3c(cc2Nc2cccc4c2C(=O)N([C@H]2CCC(=O)NC2=O)C4=O)N(C)C(=O)[C@@H](C)C3)ccn1` [Compound 86, 4-(((S)-1,3-dimethyl-6-(2-methylpyridin-4-yl)-2-oxo-1,2,3,4-tetrahydroquinolin-7-yl)amino)-2-((S)-2,6-dioxopiperidin-3-yl)isoindoline-1,3-dione], the DC50 at ZBTB7A came out at 0.048 µM; at WIZ, 0.009 µM. For the same compound, the “HBF AUC” value with HbF is “+ (+ = 15 ≤ AUC < 100)”.

As for `Cc1cc(-c2cc3c(cc2Nc2cccc4c2C(=O)N([C@H]2CCC(=O)NC2=O)C4=O)N(C)C(=O)[C@H](C)C3)ccn1` [Compound 87, 4-(((R)-1,3-dimethyl-6-(2-methylpyridin-4-yl)-2-oxo-1,2,3,4-tetrahydroquinolin-7-yl)amino)-2-((S)-2,6-dioxopiperidin-3-yl)isoindoline-1,3-dione], the DC50 was found to be 0.016 µM on ZBTB7A and 0.012 µM on WIZ. For the same compound, the “HBF AUC” value in the experiment on HbF is on record as “+ (+ = 15 ≤ AUC < 100)”.

Take `Cc1cc(-c2cc3c(cc2Nc2cccc4c2C(=O)N([C@H]2CCC(=O)NC2=O)C4=O)N(C2CC2)C(=O)CC3)ccn1` [Compound 88, (S)-4-((1-cyclopropyl-6-(2-methylpyridin-4-yl)-2-oxo-1,2,3,4-tetrahydroquinolin-7-yl)amino)-2-(2,6-dioxopiperidin-3-yl)isoindoline-1,3-dione]: the DC50 at ZBTB7A was determined as 0.06 µM; at WIZ, 0.008 µM. Also, the “HBF AUC” value in the experiment with HbF is listed as “+ (+ = 15 ≤ AUC < 100)”.

As for `CCN1C(=O)CCc2cc(-c3ccnc(C)c3)c(Nc3cccc4c3C(=O)N([C@H]3CCC(=O)NC3=O)C4=O)cc21` [Compound 89, (S)-2-(2,6-dioxopiperidin-3-yl)-4-((1-ethyl-6-(2-methylpyridin-4-yl)-2-oxo-1,2,3,4-tetrahydroquinolin-7-yl)amino)isoindoline-1,3-dione], the DC50 at ZBTB7A came to 0.013 µM; on WIZ, 0.014 µM. Besides, the “HBF AUC” value in the experiment on HbF was “+ (+ = 15 ≤ AUC < 100)”.

Take `Cc1cc(-c2c(Nc3cccc4c3C(=O)N([C@H]3CCC(=O)NC3=O)C4=O)cc3c(c2F)CCC(=O)N3C)ccn1` [Compound 90, (S)-2-(2,6-dioxopiperidin-3-yl)-4-((5-fluoro-1-methyl-6-(2-methylpyridin-4-yl)-2-oxo-1,2,3,4-tetrahydroquinolin-7-yl)amino)isoindoline-1,3-dione]: the DC50 at ZBTB7A stood at 0.024 µM; on WIZ it was 0.014 µM. The “HBF AUC” value in the experiment with HbF is given as “++ (++ = 100 ≤ AUC < 150)”.

Consider `CO[C@H]1CC[C@H](c2cc3c(cc2Nc2cccc4c2C(=O)N([C@H]2CCC(=O)NC2=O)C4=O)N(C)C(=O)CC3)CC1` [Compound 91, 2-((S)-2,6-dioxopiperidin-3-yl)-4-((6-((1r,4S)-4-methoxycyclohexyl)-1-methyl-2-oxo-1,2,3,4-tetrahydroquinolin-7-yl)amino)isoindoline-1,3-dione], for which the DC50 on ZBTB7A and at WIZ was 0.004 µM in each case. Besides, the “HBF AUC” value in the experiment with HbF is recorded as “++ (++ = 100 ≤ AUC < 150)”.

Turning to `CO[C@H]1CC[C@@H](c2cc3c(cc2Nc2cccc4c2C(=O)N(C2CCC(=O)NC2=O)C4=O)N(C)C(=O)CC3)CC1` (stereo partly drawn) [Compound 92, 2-(2,6-dioxopiperidin-3-yl)-4-((6-((1s,4s)-4-methoxycyclohexyl)-1-methyl-2-oxo-1,2,3,4-tetrahydroquinolin-7-yl)amino)isoindoline-1,3-dione], the DC50 at ZBTB7A was found to be 0.003 µM; at WIZ it was 0.002 µM. Besides, the “HBF AUC” value with HbF is given as “+ (+ = 15 ≤ AUC < 100)”.

Consider `CN1C(=O)CCc2cc(C3CCN(C(=O)C4CC4)CC3)c(Nc3cccc4c3C(=O)N(C3CCC(=O)NC3=O)C4=O)cc21` (stereo not drawn) [Compound 93, 4-((6-(1-(cyclopropanecarbonyl)piperidin-4-yl)-1-methyl-2-oxo-1,2,3,4-tetrahydroquinolin-7-yl)amino)-2-(2,6-dioxopiperidin-3-yl)isoindoline-1,3-dione], for which the results for the DC50 at ZBTB7A and on WIZ were 0.015 µM and 0.004 µM, respectively. The “HBF AUC” value in the experiment with HbF is “++ (++ = 100 ≤ AUC < 150)”.

Take `C=CN1C(=O)CCc2cc(-c3ccnc(C)c3)c(Nc3cccc4c3C(=O)N(C3CCC(=O)NC3=O)C4=O)cc21` (stereo not drawn) [Compound 94, 2-(2,6-dioxopiperidin-3-yl)-4-((6-(2-methylpyridin-4-yl)-2-oxo-1-vinyl-1,2,3,4-tetrahydroquinolin-7-yl)amino)isoindoline-1,3-dione]: the DC50 at ZBTB7A amounted to 0.028 µM; at WIZ it was 0.017 µM. In addition, in the experiment on HbF, the “HBF AUC” value is “+ (+ = 15 ≤ AUC < 100)”.

Regarding `Cc1cc(-c2nc3c(cc2Nc2cccc4c2C(=O)N([C@H]2CCC(=O)NC2=O)C4=O)N(C)C(=O)CC3)ccn1` [Compound 95, (S)-2-(2,6-dioxopiperidin-3-yl)-4-((5-methyl-2-(2-methylpyridin-4-yl)-6-oxo-5,6,7,8-tetrahydro-1,5-naphthyridin-3-yl)amino)isoindoline-1,3-dione], the DC50 worked out at 0.256 µM on ZBTB7A and 0.089 µM at WIZ. The “HBF AUC” value in the experiment with HbF is “+ (+ = 15 ≤ AUC < 100)”.

Regarding `Cc1cc(-c2cc3c(cc2Nc2cccc4c2C(=O)N(C2CCC(=O)NC2=O)C4=O)N(C)C(=O)CC3C)ccn1` (stereo not drawn) [Compound 96, 4-((1,4-dimethyl-6-(2-methylpyridin-4-yl)-2-oxo-1,2,3,4-tetrahydroquinolin-7-yl)amino)-2-(2,6-dioxopiperidin-3-yl)isoindoline-1,3-dione], the DC50 is 0.013 µM on ZBTB7A and 0.011 µM on WIZ. The “HBF AUC” value in the experiment on HbF is “++ (++ = 100 ≤ AUC < 150)”.
